Target: T1, human RXFP1 (Homo sapiens, UniProt Q9HBX9)
T1 construct: expressed in transfected cells
T1 sequence (Q9HBX9 1-757): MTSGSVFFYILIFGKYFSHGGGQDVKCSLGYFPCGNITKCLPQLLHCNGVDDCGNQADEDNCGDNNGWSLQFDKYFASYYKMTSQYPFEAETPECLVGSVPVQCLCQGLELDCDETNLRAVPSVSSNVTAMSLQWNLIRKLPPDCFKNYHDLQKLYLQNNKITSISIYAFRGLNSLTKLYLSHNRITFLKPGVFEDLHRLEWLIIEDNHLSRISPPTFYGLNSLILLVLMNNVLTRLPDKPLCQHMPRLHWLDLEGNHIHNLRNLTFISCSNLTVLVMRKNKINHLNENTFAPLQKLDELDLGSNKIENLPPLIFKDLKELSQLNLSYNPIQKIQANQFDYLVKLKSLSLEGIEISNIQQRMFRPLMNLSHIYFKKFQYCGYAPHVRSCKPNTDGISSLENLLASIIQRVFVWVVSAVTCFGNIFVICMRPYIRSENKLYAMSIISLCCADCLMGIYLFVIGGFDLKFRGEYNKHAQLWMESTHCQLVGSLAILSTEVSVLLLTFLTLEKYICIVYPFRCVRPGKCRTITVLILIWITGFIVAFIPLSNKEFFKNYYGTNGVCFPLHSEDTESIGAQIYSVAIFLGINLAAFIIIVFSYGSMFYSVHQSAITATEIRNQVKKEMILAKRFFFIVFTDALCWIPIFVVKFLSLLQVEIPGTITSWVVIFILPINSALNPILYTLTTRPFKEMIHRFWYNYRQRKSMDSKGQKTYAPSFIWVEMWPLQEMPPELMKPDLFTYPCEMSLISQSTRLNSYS
Test: RXFP1 cAMP assay (hRXFP1 HEK293 cAMP assay, HTRF)
Type: cell-based
Conditions: HEK293 cells stably expressing human RXFP1, 30 min at room temperature, read-out: cAMP hRXFP1 HEK293 Assay EC50
Summary of the method: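 Potency and activity come from a four-parameter logistic fit of cAMP against compound concentration, tested from 0.010 nM up to 50 μM. The assay uses HEK293 cells stably expressing human RXFP1, incubated 30 min at ambient temperature with phosphodiesterase inhibitor IBMX present.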

EC50 [nM]	SMILES
3	COc1ccc(-c2cc(C(NC(=O)C(F)(F)F)C(=O)O)ccc2F)cc1C(=O)N[C@@H]1C2CCC(/C2=C/C(F)(F)F)[C@@H]1C(=O)Nc1ccc(F)c(C(F)(F)F)c1 (stereo partly drawn) [compound 241]
350	COc1ccc(C2=NOC(CC(C)(C)O)C2)cc1C(=O)N[C@H]1[C@@H](C(=O)NCC(C)(C)C)[C@H]2CC[C@@H]1/C2=C\C1CC1 (stereo partly drawn) [compound 660]
0.9	COc1ccc(-c2cc(C(COC(=O)Nc3ccccc3)C(F)(F)F)ccc2F)cc1C(=O)N[C@H]1[C@@H](C(=O)Nc2ccc(F)c(C(F)(F)F)c2)[C@H]2CC[C@@H]1/C2=C\C1CC1 (stereo partly drawn) [compound 876]
1.8	O=C(N[C@H]1[C@@H](C(=O)Nc2ccc(F)c(C(F)(F)F)c2)[C@H]2CC[C@@H]1/C2=C\C1CC1)c1cc(C2=NOC3COCC23)ccc1OCCC(F)(F)F (stereo partly drawn) [compound 780]
3.8	COc1c(F)cc(C2=NOC3CC(CO)CC23)cc1C(=O)N[C@@H]1C2CCC(/C2=C/C2CC2)[C@@H]1C(=O)NC12CC(C#N)(C1)C2 (stereo partly drawn) [compound 772]
29	COc1ccc(-c2ccc(C(=O)N(C)C)cc2F)cc1C(=O)N[C@@H]1C2CCC(/C2=C/c2ccccc2)[C@@H]1C(=O)Nc1ccc(F)c(C(F)(F)F)c1 (stereo partly drawn) [compound 195]
612	COc1ccc(C2=NOC(C(C)(O)C(F)(F)F)C2)cc1C(=O)N[C@H]1[C@@H](C(=O)Nc2ccc(F)c(C(F)(F)F)c2)[C@H]2CC[C@@H]1/C2=C\C1CC1 (single isomer, unassigned) [compound 682]
47.3	COc1ccc(C2=NOC3COCC23)cc1C(=O)N[C@H]1[C@@H](C(=O)NCC(C)(C)OC)[C@H]2CC[C@@H]1/C2=C\C1CC1 (stereo partly drawn) [compound 564]
102	COc1ccc(C2=NOC3COCC23)cc1C(=O)N[C@H]1[C@@H](C(=O)Nc2ccccc2C)[C@H]2CC[C@@H]1/C2=C\C1CC1 (stereo partly drawn) [compound 596]
4.9	COc1ccc(-c2cc(C3=NOC4CC(CO)CC34)ccc2F)cc1C(=O)N[C@H]1[C@@H](C(=O)Nc2ccc(F)c(C(F)(F)F)c2)[C@H]2CC[C@@H]1/C2=C\C1CCCC1 (stereo partly drawn) [compound 950]
250	COc1cc(F)c(F)cc1C(=O)N[C@@H]1C2CCC(/C2=C2\CCc3ccccc32)[C@@H]1C(=O)Nc1ccc(F)c(C(F)(F)F)c1 (stereo partly drawn) [compound 72]
1.2	COc1ccc(C2=NOC3CC(C#N)CC23)cc1C(=O)N[C@H]1[C@@H](C(=O)N[C@H](C)C2(C)CC2)[C@H]2CC[C@@H]1/C2=C\C1CC1 (stereo partly drawn) [compound 760]
0.4	COc1c(F)cc(C2=NOC3CC(CO)CC23)cc1C(=O)N[C@H]1[C@@H](C(=O)N[C@H](C)C2(C)CC2(F)F)[C@H]2CC[C@@H]1/C2=C\C1CC1 (stereo partly drawn) [compound 756]
13	C=C/C=C1\C2CCC1[C@H](C(=O)Nc1ccc(F)c(C(F)(F)F)c1)[C@@H]2NC(=O)c1cc(-c2cc(C(N)=O)ccc2F)ccc1OC (stereo partly drawn) [compound 163]
8	COc1ccc(-c2cc(C(OC(=O)NCC(F)(F)F)C(F)(F)F)ccc2F)cc1C(=O)N[C@@H]1C2CCC(/C2=C/C2CC2)[C@@H]1C(=O)Nc1ccc(F)c(C(F)(F)F)c1 (stereo partly drawn) [compound 220]
12	COc1ccc(-c2cc(C(F)F)ccc2F)cc1C(=O)N[C@@H]1C2CCC(/C2=C/C2CC2)[C@@H]1C(=O)Nc1ccc(F)c(C(F)(F)F)c1 (stereo partly drawn) [compound 280]
2.8	COc1ccc(-c2cc([C@H](OC(=O)NC3CCC3)C(F)(F)F)ccc2F)cc1C(=O)N[C@@H]1C2CCC(/C2=C/CC(C)C)[C@@H]1C(=O)Nc1ccc(F)c(C(F)(F)F)c1 (stereo partly drawn) [compound 926]
4.1	COc1ccc(C2=NOC3CC(CO)CC23)cc1C(=O)N[C@H]1[C@@H](C(=O)NC23CC(C)(C2)C3)[C@H]2CC[C@@H]1/C2=C\C1CC1 (stereo partly drawn) [compound 774]
3000	COc1cc(F)c(F)cc1C(=O)N[C@@H]1C2CCC(/C2=C\c2ccccc2)[C@]1(F)C(=O)Nc1ccc(F)c(C(F)(F)F)c1 (stereo partly drawn) [Example 52]
0.6	COc1ccc(-c2cc(C(OC(=O)NC3CCC3)C(=O)O)ccc2F)cc1C(=O)N[C@H]1[C@@H](C(=O)Nc2ccc(F)c(C(F)(F)F)c2)[C@H]2CC[C@@H]1/C2=C\C1CC(F)(F)C1 (stereo partly drawn) [compound 939]

More lines, now with the values behind:

SMILES	EC50 [nM]
COc1ccc(C2=NOC(C(N)=O)C2)cc1C(=O)N[C@@H]1C2CCC(/C2=C/C2CC2)[C@@H]1C(=O)Nc1ccc(F)c(C(F)(F)F)c1 (stereo partly drawn) [compound 404]	45
COc1ccc(C2=NOC3CC(F)CC23)cc1C(=O)N[C@H]1[C@@H](C(=O)Nc2ccc(F)c(C(F)(F)F)c2)[C@H]2CC[C@@H]1/C2=C\C1CC1 (stereo partly drawn) [Example 427, (1R,2S,3R,4R,Z)-7-(cyclopropylmethylene)-N-(4-fluoro-3-(trifluoromethyl)phenyl)-3-(5-(5-fluoro-3a,5,6,6a-tetrahydro-4H-cyclopenta[d]isoxazol-3-yl)-2-methoxybenzamido)bicyclo[2.2.1]heptane-2-carboxamide]	54
COc1c(F)cc(C2=NOC3CC(CO)CC23)cc1C(=O)N[C@H]1[C@@H](C(=O)N[C@H](C)C2(C)CC(F)(F)C2)[C@H]2CC[C@@H]1/C2=C\C1CC1 (stereo partly drawn) [compound 870]	2.2
COc1ccc(C2=NOC3CC(CO)CC23)cc1C(=O)N[C@H]1[C@@H](C(=O)Nc2ccc(F)c(C(F)(F)F)c2)[C@H]2CC[C@@H]1/C2=C\C1CCC1 (stereo partly drawn) [compound 446]	0.6
COc1ccc(-c2cc(C(OC(=O)NC3CCC3)C(F)F)ccc2F)cc1C(=O)N[C@@H]1C2CCC(/C2=C/C2CC2)[C@@H]1C(=O)Nc1ccc(F)c(C(F)(F)F)c1 (stereo partly drawn) [compound 231]	1
COc1ccc(C2=NOC3CN(C(=O)OC(C)(C)C)CC23)cc1C(=O)N[C@H]1[C@@H](C(=O)Nc2ccc(F)c(C(F)(F)F)c2)[C@H]2CC[C@@H]1/C2=C\C1CC1 (mixture of isomers) [Example 434, tert-butyl 3-(3-(((1R,2R,3S,4R,Z)-7-(cyclopropylmethylene)-3-((4-fluoro-3-(trifluoromethyl)phenyl)carbamoyl)bicyclo[2.2.1]heptan-2-yl)carbamoyl)-4-methoxyphenyl)-3a,4,6,6a-tetrahydro-5H-pyrrolo[3,4-d]isoxazole-5-carboxylate]	24
COc1cc(F)c(F)cc1C(=O)N[C@@H]1C2CCC(/C2=C/C2=CCCC2)[C@@H]1C(=O)Nc1ccc(F)c(C(F)(F)F)c1 (stereo partly drawn) [compound 38]	360
COc1ccc(-c2cccc3c2ccn3C(=O)OC(C)(C)C)cc1C(=O)N[C@H]1[C@@H](C(=O)Nc2ccc(F)c(C(F)(F)F)c2)[C@H]2CC[C@@H]1/C2=C\C1CC1 [compound 880]	1.6
COc1ccc(-c2cc([C@H](OC(=O)NC3CCC3)C(F)(F)F)ccc2F)cc1C(=O)N[C@H]1[C@@H](C(=O)Nc2ccc(F)c(C(F)(F)F)c2)[C@H]2CC[C@@H]1/C2=C\C[C@@H](O)C(F)(F)F [compound 932]	3.9
COc1ccc(C2=NOC(CCO)C2)cc1C(=O)N[C@@H]1C2CCC(/C2=C/C2CC2)[C@@H]1C(=O)Nc1ccc(F)c(C(F)(F)F)c1 (stereo partly drawn) [compound 399]	42
COc1ccc(C2CCCN2C(=O)OC(C)(C)C)cc1C(=O)N[C@@H]1C2CCC(/C2=C/C2CC2)[C@@H]1C(=O)Nc1ccc(F)c(C(F)(F)F)c1 (single isomer, unassigned) [compound 694]	796
COc1ccc(-c2cc(C(=O)N3CCC(O)CC3)on2)cc1C(=O)N[C@H]1[C@@H](C(=O)Nc2ccc(F)c(C(F)(F)F)c2)[C@H]2CC[C@@H]1/C2=C\C1CC1 [Example 594]	91.4
O=C(N[C@H]1[C@@H](C(=O)Nc2ccc(F)c(C(F)(F)F)c2)[C@H]2CC[C@@H]1/C2=C\C1CC1)c1cc(C2=NOC3CC(CO)CC23)cc(F)c1OCCCF (stereo partly drawn) [compound 784]	3.4
COc1ccc(C2=NOC3CN(CCO)CC23)cc1C(=O)N[C@H]1[C@@H](C(=O)Nc2ccc(F)c(C(F)(F)F)c2)[C@H]2CC[C@@H]1/C2=C\C1CC1 (single isomer, unassigned) [compound 691]	735
COc1ccc(C2=NOC3COCC23)cc1C(=O)N[C@H]1[C@@H](C(=O)NCc2c(C)noc2C)[C@H]2CC[C@@H]1/C2=C\C1CC1 (stereo partly drawn) [compound 673]	477
COC(=O)N1CCN(c2ccc(OC)c(C(=O)NC3C4CCC(C4=Cc4ccccc4)C3C(=O)Nc3ccc(F)c(C(F)(F)F)c3)c2)CC1 (stereo not drawn) [Example 125]	240
COc1ccc(-c2ccncc2OC)cc1C(=O)N[C@H]1[C@@H](C(=O)Nc2ccc(F)c(C(F)(F)F)c2)[C@H]2CC[C@@H]1C2=C(C)C [compound 89]	330
COc1ccc(C2=NOC(C(C)(C)O)C2)cc1C(=O)N[C@H]1[C@@H](C(=O)Nc2ccc(F)c(C(F)(F)F)c2)[C@H]2CC[C@@H]1/C2=C\C1CC1 (single isomer, unassigned) [compound 573]	67.4
COC(=O)N1CCC=C(c2ccc(OC)c(C(=O)N[C@@H]3C4CCC(C4=C(C)C)[C@@H]3C(=O)Nc3ccc(F)c(C(F)(F)F)c3)c2)C1 (stereo partly drawn) [Example 134]	1400
